Assay results: PubChem BioAssay (NCI)
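All cell lines were grown in 96-well plates and treated with compound for 48 hours. TGI denotes the concentration required for complete inhibition of growth.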

What was measured:
Experiment in all cases: DTP human tumour cell line panel, 48 h
HOP-62 NSCLC = test system: HOP-62 NSCLC
HCT-116 colon = test system: HCT-116 colon
COLO 205 colon = test system: COLO 205 colon
SK-MEL-28 melanoma = test system: SK-MEL-28 melanoma
NCI-H460 lung = test system: NCI-H460 lung
PC-3 prostate = test system: PC-3 prostate
HS 578T breast = test system: HS 578T breast
HCT-15 colon = test system: HCT-15 colon
UACC-257 melanoma = test system: UACC-257 melanoma
MDA-MB-435 = test system: MDA-MB-435
HT29 colon = test system: HT29 colon
SF-539 CNS = test system: SF-539 CNS
HL-60(TB) leukemia = test system: HL-60(TB) leukemia

Structure (SMILES)	TGI (HOP-62 NSCLC)	TGI (HCT-116 colon)	TGI (COLO 205 colon)	TGI (SK-MEL-28 melanoma)	TGI (NCI-H460 lung)	TGI (PC-3 prostate)	TGI (HS 578T breast)	TGI (HCT-15 colon)	TGI (UACC-257 melanoma)	TGI (MDA-MB-435)	TGI (HT29 colon)	TGI (SF-539 CNS)	TGI (HL-60(TB) leukemia)
CCOC(=O)/C=C/CCO[Si](C)(C)C(C)(C)C	> 100 µM	> 100 µM	> 100 µM	> 100 µM	> 100 µM	> 100 µM	> 100 µM	> 100 µM	> 100 µM	> 100 µM	> 100 µM	> 100 µM	
CCCCc1ccc(-n2sc3ncc(C)cc3c2=O)cc1	> 100 µM	> 100 µM	46.3 µM	> 100 µM	> 100 µM	28.2 µM	> 100 µM	59.1 µM		> 100 µM			32.7 µM
COC(=O)[C@]1(NC(=O)c2ccccc2)C[C@H]1C=O	> 100 µM	> 100 µM	> 100 µM	> 100 µM	77 µM	> 100 µM	> 100 µM	> 100 µM	> 100 µM	> 100 µM	> 100 µM	> 100 µM	
COc1ccc(/C=N/n2c(C)n[nH]c2=O)c(OC)c1	> 100 µM	> 100 µM	> 100 µM	> 100 µM	> 100 µM	> 100 µM	9.01 µM	> 100 µM	> 100 µM	> 100 µM	> 100 µM	> 100 µM	
COc1c(=O)cc2cc[nH]c3ccn(C)c1c23	> 100 µM	> 100 µM	> 100 µM	> 100 µM	> 100 µM	> 100 µM	> 100 µM	> 100 µM	> 100 µM	> 100 µM			
CCOC(=O)C1(F)S(=O)(=O)OCCOS1(=O)=O	> 100 µM	> 100 µM	> 100 µM	> 100 µM		> 100 µM	> 100 µM	> 100 µM	> 100 µM	> 100 µM	> 100 µM	> 100 µM	
C[N+]12C=CC=C1C(N1CCCC1)c1scc(-c3ccccc3)c12 (stereo not given)	> 100 µM	> 100 µM	41.2 µM	> 100 µM		89.9 µM	67.5 µM			> 100 µM	24.4 µM		
CC1CN=C(N(Cc2ccccc2)C(=O)Nc2ccc(Cl)c(Cl)c2)S1 (stereo not given)	> 100 µM	> 100 µM	> 100 µM	68.8 µM	> 100 µM	> 100 µM	> 100 µM	> 100 µM	> 100 µM		> 100 µM	> 100 µM	> 10 µM
CC(C)(C)C1=CC(C)(n2[nH]c(=O)n(-c3ccccc3)c2=O)C=C(C(C)(C)C)C1=O		> 100 µM	> 100 µM	> 100 µM	> 100 µM	> 100 µM	> 100 µM	> 100 µM	> 100 µM	> 100 µM	> 100 µM	> 100 µM	
CCc1c(C)c(C#N)c(=S)n(C2OC(COC(C)=O)C(OC(C)=O)C(OC(C)=O)C2OC(C)=O)c1-c1ccccc1 (stereo not given)	> 31.6 µM	> 31.6 µM	> 31.6 µM	> 31.6 µM	> 31.6 µM		68.2 µM	> 31.6 µM	> 31.6 µM	> 31.6 µM	> 31.6 µM	> 31.6 µM	> 100 µM
O=[N+]([O-])c1ccc(-c2nc3ccc(Cl)cc3[nH]2)cc1	> 100 µM	> 100 µM	> 100 µM	> 100 µM	> 100 µM	> 100 µM	> 100 µM	> 100 µM	> 100 µM	> 100 µM	> 100 µM	> 100 µM	
COc1ccc(N2C(=O)/C(=C\c3cc(OC)c(OC)c(OC)c3)SC2c2ccccc2)cc1 (stereo not given)	> 100 µM	> 100 µM	> 100 µM	> 100 µM	> 100 µM		> 100 µM	> 100 µM	> 100 µM	> 100 µM	> 100 µM	> 100 µM	> 100 µM
COc1ccc2c(c1)c1c(n2CCN(C)C)-c2ccccc2CC1	30.5 µM	28.7 µM	27.2 µM	29.1 µM	30.8 µM	25.2 µM	34.2 µM	26.8 µM	30.3 µM	36.5 µM	20.3 µM	27 µM	
CCCCCCCC1(N=[N+]=[N-])C(=O)Nc2ccccc2C1=O (stereo not given)	32 µM	32.6 µM	36.3 µM	30.7 µM	53.6 µM	24.1 µM	42 µM	47.3 µM	41.2 µM	34.2 µM	56.8 µM	29.6 µM	
CCOC(=O)CNC(=O)C(CSC(=O)N(O)c1ccc(Cl)cc1)NC(=O)CCC(N)C(=O)OCC (stereo not given)	> 50 µM	> 50 µM	> 50 µM	> 50 µM	> 50 µM	> 50 µM	> 50 µM	> 50 µM	> 50 µM	> 50 µM	> 50 µM	> 50 µM	
